The test system of assay [1] is ΔF508-CFTR (IBE-1 cells). Conditions: CFTR vs ORCC; Cliff and Frizzel, Schwiebert et al.; cited from earlier work.
Assay [2] concerns ΔF508-CFTR (IBE-1 cells). In words: whole cell patch-clamp analysis of IBE-1 cells. The class given is cell-based, human. Conditions: 200 μM extracellular DPC, n=4, DSG-treated IBE-1 cells. As for the experimental part: The bath (extracellular) solution contained: 140 mM N-methyl-Dglucamine (NMDG), 2 mM CaCl2, 1 mM MgCl2, 0.1 mM CdCl2, 10 mM HEPES, 4 mM CsCl, and 10 mM glucose, pH 7.4. These solutions were designed so as to study only currents flowing through Cl^- channels, since Cl^- was the only significant permeant ion in the solutions. Furthermore, Ca^2+ -activated Cl^- currents were minimized by inclusion of 10 mM EGTA in the intracellular solution and 100 μM of Cd^2+ in the extracellular bath. K^+ currents were minimized by including 20 mM TEA in the intracellular solution. Aspartate was used as the replacement anion in experiments in which extracellular Cl^- concentration was changed. Forskolin (10 μM), IBMX (100 μM), 8-(4-chlorophenylthio)-cAMP (cpt-cAMP, 200 μM), diphenylamine carboxylic acid (DPC, 200 μM), UTP (100 μM), and ionomycin (1 μM) were added to the bath solutions as indicated. Current recordings were made from the same cells before, during, and after exposure to the solutions containing the different agonists or inhibitors. All experiments were performed at room temperature (22° C.). Currents were filtered at 2 kHz. Data acquisition and analysis were performed using the PCLAMP 5.5.1 software (Axon Instruments, Foster City, Calif.).
In all of the successfully patched CF IBE-1 cells from 6 separate coverslips no activation of whole cell currents in response to forskolin (10 μM) plus IBMX (100 μM) or cpt-cAMP (200 μM) was detected (FIG. 10A and 10B), indicating no endogenous CFTR channel activity in these cells. In contrast, in 7 out of 19 successful patched cells from 19 separate coverslips treated with DSG (10 μM) for 48 to 72 hrs. a significant activation of whole cell currents was observed. As all the other cells, the holding potential was 0 m, which inactivated the voltage-gated Na^+ and Ca^++ channels. After addition of 200 μM cpt-cAMP to the bath solution, voltage steps from the holding potential to between -100 mV and 80 mV in 20 mV increments activated whole cell currents. In these experiments, the intracellular and extracellular solutions were designed to study only current flowing through Cl^- channels, since Cl^- is the only significant permeant ion in solution. Ca^++ and K^+ currents were minimized by 100 μM of extracellular Cd^++ and 20 mM of intracellular TEA respectively. Furthermore, the currents were ascertained to be Cl^- currents from change in the reversal potential which was shifted from 1.1±1.5 to 47.3±6.1 mV by reducing extracellular Cl^- from 150 mM to 20 mM.
It is highly unlikely that Ca^++ -activated Cl^- was recorded in these experiments because of the presence of 10 mM intracellular EGTA and 100 µM extracellular Cd^++. […] Special attention was paid to detect possible contribution of the outwardly rectifying Cl^- channel (ORCC) to the whole cell currents. Because of a possible upregulatory role of CFTR, ORCC can be activated in normal but not in CF airway epithelial cells (Hwang et al. (1989), supra.; Li et al. (1988), Nature 331: 358-360; Morris and Frizzel (1993); Am. J. Physiol.; Schwiebert et al. (1994), Am. J. Physiol.).
A general note: The patch-clamp technique gives a direct electrical read-out from membranes.

Another assay relates to CFTR. Conditions: Yang et al. (1997); cited from earlier work.
Assay [3] concerns ΔF508-CFTR (C127-ΔF508-low cells). As to the kind of experiment: SPQ halide efflux assay, cAMP-stimulated Cl- channel activity, C127-ΔF508-low cells. The class given is cell-based. Conditions: C127-ΔF508-low cells; for cAMP-stimulated change in SPQ fluorescence / Cl- channel activity, in words: DSG 10-100 μg/ml, sodium butyrate 5 mM 24 h, spermidine 5 μg/ml 72 h. As for the experimental part:
(§1) The cAMP-dependent CFTR Cl^- channel activity was assessed using the halide-sensitive fluorophore 6-methoxy-N-(3-sulfopropyl)-quinolinium (SPQ) essentially as described previously (Cheng et al., (1995), supra.; Marshall et al., supra.). Briefly, the cells were treated with different amounts of DSG for the times specified. At the end of the treatment period, the cells were loaded with SPQ by hypotonic shock for 4 min at room temperature. SPQ fluorescence initially was quenched by incubating the cells for up to 30 min in a NaI buffer (135 mM NaI, 2.4 mM K2 HPO4, 0.6 mM KH2 PO4, 1 mM MgSO4, 1 mM CaSO4, 10 mM dextrose, and 10 mM N-2 hydroxyethylpiperazine-N'2-ethanesulfonic acid, pH 7.4). After measuring the baseline fluorescence (Fo) for 2 min., the NaI solution was replaced with one containing 135 mM NaNO3, and fluorescence was measured for another 16 min. Forskolin (20 μM) and 3-isobutyl-1-methyl-xanthine (IBMX) (100 μM) were added 5 min after the anion substitution to increase intracellular levels of cAMP.
(§2) An increase in halide permeability is reflected by a more rapid increase in SPQ fluorescence. It is the rate of change rather than the absolute change in signal that is the important variable in evaluating anion permeability. Differences in absolute levels reflect quantitative differences between groups in SPQ loading, size of cells, or number of cells studied. The data are presented as means± SE of fluorescence at time t (Ft) minus the baseline fluorescence (Fo, the average fluorescence measured in the presence of I^- for 2 min. before ion substitution) and are representative of results obtained under each condition.
For each experiment, between 50 to 100 cells were examined on a given day and studies under each condition were repeated on at least two days. For each experiment, the responses were compared with those obtained with control or untreated cells. […] Under the conditions specified above, control cells were unresponsive to added cAMP agonists. There was a broad spectrum in the rate of change in SPQ fluorescence observed with responsive cells. Normally, cells were scored as responsive if they generated a minimum of a […] change in the rate of increase in SPQ fluorescence following stimulation with cAMP agonists. Because the response was heterogenous, the data shown are for the 10% of cells in each experiment showing the greatest response.
A bovine-papilloma virus based eukaryotic expression vector (pBPV-CFTR-ΔF508) containing the gene for ΔF508 CFTR and neomycin resistance were transfected into C127 cells. The C127 cells are murine mammary cells which were obtained from ATCC (#CRL 1616). The expression of the mutant ΔF508 protein and neomycin was driven using a metallothionein promoter. Following transfection, clonal cells resistant to G418 were isolated and cells expressing the mutant ΔF508 protein were subsequently identified using antibodies specific for CFTR (mAb-13-1). The cells expressing the mutant ΔF508 CFTR protein were maintained in Dulbecco's modified eagle media (DMEM) supplemented with glutamine and fetal calf serum.
C127-ΔF508-low (mouse mammary tumor) is a recombinant cell line stably transfected with the cDNA encoding the mutant ΔF508-CFTR (Cheng et al. (1995), supra.; Marshall et al. (1994), J. Biol. Chem. 269: 2987-2995). […] C127-mock is a cell line that has been stably transfected with the backbone of the expression vector used to generate C127-ΔF508-low (Cheng et al. (1995), supra.). LLCPK1 -ΔF508 (pig kidney epithelial) is a recombinant cell line stably expressing low levels of the mutant ΔF508-CFTR protein (Marshall et al., supra.). The details of the generation, characterization and routine propagation of these cell lines has been described (Cheng et al. (1995), supra.; Marshall et al., supra.).
Cells were treated with up to 100 μg/ml of DSG for up to 72 h. Concentrations of DSG >50 μg/ml were toxic to most of the cell types tested. […]

The next assay has as its system ΔF508-CFTR. Conditions: recombinant cells; Cheng et al. (1995); cited from earlier work.
Assay [4] concerns ΔF508-CFTR (JME/CF15 cells). As to the kind of experiment: SPQ assay, cAMP-stimulated Cl- channel activity, JME/CF15 cells. The class given is cell-based, human. Conditions: 72 h. As for the experimental part: as §1, §2
For each experiment, between 50 to 100 cells were examined on a given day and studies under each condition were repeated on at least two days. […] There was a broad spectrum in the rate of change in SPQ fluorescence observed with responsive cells. Normally, cells were scored as responsive if they generated a minimum of a […] change in the rate of increase in SPQ fluorescence following stimulation with cAMP agonists. […]

Entries after “also recorded” stand apart in the source; their conditions may differ.

With `O=C(O)c1ccccc1Nc1ccccc1` [DPC, diphenylamine carboxylic acid], the selectivity of inhibition result with ΔF508-CFTR (IBE-1 cells) [1] is reported as “specifically inhibit CFTR but not ORCC”. For the same compound, the “reduction of whole cell currents” value with ΔF508-CFTR (IBE-1 cells) [2] turned out to be 92±4%.
Consider `O=c1c(-c2ccc(O)cc2)coc2cc(O)cc(O)c12` [genistein], for which the “activity of CFTR Cl channels at the cell surface” value in the assay on CFTR was “enhance the activity of CFTR”.
As to `CCCC(=O)[O-].[Na+]` [sodium butyrate], the “cells generating a measurable response” value in assay [3] (SPQ, average of 5 experiments) is recorded as 90%. Further, in assay [3], the “cAMP-stimulated change in SPQ fluorescence / Cl- channel activity, in words” value is “generated cAMP-stimulated halide efflux”. Also, the “effect on ΔF508-CFTR expression / location, in words” value with ΔF508-CFTR is recorded as “overexpression of ΔF508 in recombinant cells; also recorded: results in synthesis of detectable amounts of band C-CFTR; also recorded: capable of effecting the presence of ΔF508-CFTR at the plasma membrane”.
For `NCCCCNCCCN` [spermidine], the “cAMP-stimulated change in SPQ fluorescence / Cl- channel activity, in words” value in assay [3] is “No measurable cAMP-stimulated Cl^- channel activity was detected”. Also, the “cAMP-stimulated Cl- channel activity, in words” value in assay [4] was “not replicated”.
calyculin: the “activity of CFTR Cl channels at the cell surface” value with CFTR is listed as “enhance the activity of CFTR”.

(Values after patent US5985824A, “Methods and compositions for treating cystic fibrosis” (priority 1997, dated 1999).)
